Experimental data published in patent US20120128860A1, “PREPARATION OF VEGETABLE MATERIAL AND FOOD PRODUCTS” (priority 2009, published 2012).

Test system: tobacco plants (Nicotiana tabacum)
Test: Chlorophyll a and b content of tobacco leaves after pre-harvest kinetin treatment, soaking and storage
Assay type: in vivo
Set-up: reduction after 27 d (chlorophyll): concentration or dose not given beside the values
Settings: cytokinin 5 days pre-harvest; for reduction after 27 d (chlorophyll): 27 d storage; for chlorophyll level after 0 d storage / chlorophyll level after 3 d storage / chlorophyll level after 7 d storage / chlorophyll level after 10 d storage / chlorophyll level after 14 d storage / chlorophyll level after 20 d storage / chlorophyll level after 27 d storage: stored 4° C. dark
Procedure: Determination of chlorophyll contents of fresh leaves using a spectrophotometer. Procedure: • 1. Homogenisation of plant tissue (100 mg) in liquid nitrogen. For each data point at least three biological samples were harvested. • 2. Addition of 400 microliter acetone in 10 micromolar KOH and subsequent vortexing • 3. Centrifugation of the homogenate at 13,000 rpm for 10 min to remove cell debris and proteins • 4. Transfer of the supernatant into new test tubes • 5. Addition 200 microliter of extraction mixture to the pellet as mentioned above and vortexing • 6. Centrifugation of the homogenate at 13,000 rpm for 10 min • 7. Mix of the supernatant with the supernatant from step 4 • 8. Repeat of steps 5-7 three times until the pellet is completely white • 9. Dilution of the sample 1:10 in acetone and measurement of absorption at 664, 646/7 and 750 nm in a spectrophotometer. All absorbance measurements at the indicated wavelength need subtraction of the absorbance at 750 nm. Calculation of the chlorophyll contents by comparing with calibration curves.
Determination of chlorophyll contents of leaves by HPLC. Procedure: • 1. Homogenisation of 100 mg plant material in liquid nitrogen in a test tube • 2. Addition of 500 microliter acetone with 10 micromolar KOH and vortexing. • 3. Centrifugation of the suspension for 10 min at 4° C. at 13.000 rpm. • 4. The supernatant is transferred into new test tube • 5. Addition of 500 microliter acetone to the pellet and resuspension of the pellet • 6. Centrifugation for 10 min at 4° C. at 13.000 rpm. • 7. The supernatant is combined with the supernatant from step 4 • 8. The samples are vortexed and centrifuged for 10 min at 4° C. at 13,000 rpm. • 9. A 40 microliter aliquot of the extract is mixed with 160 microliter water • 10. The sample is transferred into a HPLC vial • 11. An aliquot of 10-100 microliter is injected into the HPLC column (RP C18 column) • 12. Running buffers: Acetonitril/H2O/triethylamine (1798:200:2) and ethyl acetate
Objective of the experiments: to combine effects of pre-harvest treatment of tobacco plants with the growth hormone kinetin and subsequently soaking with a buffer solution on the stability of chlorophyll after heat treatment followed by different storage periods.
A 1 mM kinetin solution in water was made by dissolving kinetin dropwise with 10 microliter 1M NaOH, then the solution was neutralized to pH 7.0 with HCl. This 1 mM kinetin aqueous solution was injected into the leaves of growing tobacco plants (Nicotiana tabacum). The application of cytokinin was repeated once a day for five successive days. At day 7, tobacco leaves were harvested and stored in aluminium foils. Control plants were treated with the same solution at pH 7.0 (in water), but without kinetin.
After harvest, leaves of the harvested plants (both treated with cytokinin, as well as the control plants) were separated in batches, which were subsequently treated at different temperatures in one the following ways: • 1. leaves were soaked in tap water during 1 minute at room temperature; • 2. leaves were soaked in a buffer solution of pH 7.2 during 1 minute at room temperature; • 3. leaves were soaked in tap water during 1 minute at 70° C.; • 4. leaves were soaked in a buffer solution of pH 7.2 during 1 minute at 70° C.; • 5. leaves were soaked in tap water during 1 minute at 90° C.; • 6. leaves were soaked in a buffer solution of pH 7.2 during 1 minute at 90° C.;
Immediately after each of these steps, the soaked leaves were cooled shortly in a cold tap water bath at 3° C.
The aqueous buffer solution contained 137 mM NaCl, 2.7 mM KCL, 10 mM Na2HPO4 and 2 mM KH2PO4, and was adjusted to pH 7.2 with more hydrogen phosphate or dihydrogenphosphate if required.
Finally the chlorophyll content of the leaves was quantified after storage in tissue papers at 4° C. in the dark at various moments in time. […]

[1] = soaked 1 min in buffer pH 7.2 at 70° C.
[2] = soaked 1 min in buffer pH 7.2 at 90° C.
[3] = soaked 1 min in buffer pH 7.2 at room temperature
[4] = soaked 1 min in water at 70° C.
[5] = soaked 1 min in water at 90° C.
[6] = soaked 1 min in water at room temperature

## c1coc(CNc2ncnc3[nH]cnc23)c1 [cytokinin, 6-furfurylaminopurine]
[1]
  reduction after 27 d (chlorophyll): 11%
  chlorophyll level after 0 d storage: 18 micromole per gram fresh weight
  chlorophyll level after 3 d storage: 17.5 micromole per gram fresh weight
  chlorophyll level after 7 d storage: 17.2 micromole per gram fresh weight
  chlorophyll level after 10 d storage: 17 micromole per gram fresh weight
  chlorophyll level after 14 d storage: 17 micromole per gram fresh weight
  chlorophyll level after 20 d storage: 16.8 micromole per gram fresh weight
  chlorophyll level after 27 d storage: 16 micromole per gram fresh weight
[2]
  chlorophyll level after 0 d storage: 18 micromole per gram fresh weight
  chlorophyll level after 3 d storage: 17.5 micromole per gram fresh weight
  chlorophyll level after 7 d storage: 17 micromole per gram fresh weight
  chlorophyll level after 10 d storage: 16.5 micromole per gram fresh weight
  chlorophyll level after 14 d storage: 16 micromole per gram fresh weight
  chlorophyll level after 20 d storage: 15.5 micromole per gram fresh weight
  chlorophyll level after 27 d storage: 15 micromole per gram fresh weight
[3]
  reduction after 27 d (chlorophyll): 17%
  chlorophyll level after 0 d storage: 18.5 micromole per gram fresh weight
  chlorophyll level after 3 d storage: 17.5 micromole per gram fresh weight
  chlorophyll level after 7 d storage: 16.5 micromole per gram fresh weight
  chlorophyll level after 10 d storage: 15.5 micromole per gram fresh weight
  chlorophyll level after 14 d storage: 16 micromole per gram fresh weight
  chlorophyll level after 20 d storage: 15.5 micromole per gram fresh weight
  chlorophyll level after 27 d storage: 15 micromole per gram fresh weight
[4]
  chlorophyll level after 0 d storage: 17.5 micromole per gram fresh weight
  chlorophyll level after 3 d storage: 17 micromole per gram fresh weight
  chlorophyll level after 7 d storage: 16.5 micromole per gram fresh weight
  chlorophyll level after 10 d storage: 16.5 micromole per gram fresh weight
  chlorophyll level after 14 d storage: 16 micromole per gram fresh weight
  chlorophyll level after 20 d storage: 16 micromole per gram fresh weight
  chlorophyll level after 27 d storage: 15.5 micromole per gram fresh weight
[5]
  reduction after 27 d (chlorophyll): 50%
  chlorophyll level after 0 d storage: 15 micromole per gram fresh weight
  chlorophyll level after 3 d storage: 13.5 micromole per gram fresh weight
  chlorophyll level after 7 d storage: 12.5 micromole per gram fresh weight
  chlorophyll level after 10 d storage: 11 micromole per gram fresh weight
  chlorophyll level after 14 d storage: 9.8 micromole per gram fresh weight
  chlorophyll level after 20 d storage: 8.8 micromole per gram fresh weight
  chlorophyll level after 27 d storage: 7.5 micromole per gram fresh weight
[6]
  reduction after 27 d (chlorophyll): 9%
  chlorophyll level after 0 d storage: 18 micromole per gram fresh weight
  chlorophyll level after 3 d storage: 17.8 micromole per gram fresh weight
  chlorophyll level after 7 d storage: 17.2 micromole per gram fresh weight
  chlorophyll level after 10 d storage: 16.5 micromole per gram fresh weight
  chlorophyll level after 14 d storage: 16.2 micromole per gram fresh weight
  chlorophyll level after 20 d storage: 16 micromole per gram fresh weight
  chlorophyll level after 27 d storage: 16 micromole per gram fresh weight
